Results taken from ChEMBL document CHEMBL1201862, “PubChem BioAssay data set” (2004).
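Assay format: 96-well plates, 48-hour exposure. GI50 is the concentration that inhibits growth by half.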 Activity calls are given as the source filed them. Cut-off read from the data, not from the text of the source: active = GI50 up to about 1.1 µM and inactive = higher.

Experiments:
Assay in all cases: growth of human tumour cells (NCI), 48 h
786-0 = system: 786-0
A498 = system: A498
A549 = system: A549
ACHN = system: ACHN
CAKI-1 = system: CAKI-1
CCRF-CEM = system: CCRF-CEM
COLO 205 = system: COLO 205
DU-145 = system: DU-145
HCC 2998 = system: HCC 2998
HCT-116 = system: HCT-116
HCT-15 = system: HCT-15
HL-60 = system: HL-60
HOP-62 = system: HOP-62
HOP-92 = system: HOP-92
HT-29 = system: HT-29
Hs-578T = system: Hs-578T
IGROV-1 = system: IGROV-1
K562 = system: K562
KM12 = system: KM12
LOX IMVI = system: LOX IMVI
M14 = system: M14
MCF7 = system: MCF7
MDA-MB-231 = system: MDA-MB-231
MDA-MB-435 = system: MDA-MB-435
MDA-N = system: MDA-N
MOLT-4 = system: MOLT-4
Malme-3M = system: Malme-3M
NCI-H226 = system: NCI-H226
NCI-H23 = system: NCI-H23
NCI-H460 = system: NCI-H460
NCI-H522 = system: NCI-H522
NCI/ADR-RES = system: NCI/ADR-RES
OVCAR-4 = system: OVCAR-4
OVCAR-5 = system: OVCAR-5
OVCAR-8 = system: OVCAR-8
PC-3 = system: PC-3
RPMI-8226 = system: RPMI-8226
RXF 393 = system: RXF 393
SF-268 = system: SF-268
SF-295 = system: SF-295
SF-539 = system: SF-539
SK-MEL-28 = system: SK-MEL-28
SK-MEL-2 = system: SK-MEL-2
SK-MEL-5 = system: SK-MEL-5
SK-OV-3 = system: SK-OV-3
SN12C = system: SN12C
SNB-19 = system: SNB-19
SNB-75 = system: SNB-75
SR = system: SR
SW-620 = system: SW-620
T47D = system: T47D
TK-10 = system: TK-10
U-251 = system: U-251
UACC-257 = system: UACC-257
UACC-62 = system: UACC-62
UO-31 = system: UO-31
EKVX = system: EKVX

## CCN(CCCl)c1cccc(NC(=O)c2ccc(C(=O)Nc3cccc(CN(C)C)c3)cc2)c1
786-0
  GI50: 0.0239 µM (active)
A498
  GI50: 0.136 µM (active)
A549
  GI50: 0.211 µM (active)
ACHN
  GI50: 0.0354 µM (active)
CAKI-1
  GI50: 0.302 µM (active)
CCRF-CEM
  GI50: 0.027 µM (active)
COLO 205
  GI50: 0.11 µM (active)
DU-145
  GI50: 0.0432 µM (active)
HCC 2998
  GI50: 0.123 µM (active)
HCT-116
  GI50: 0.0611 µM (active)
HCT-15
  GI50: 0.605 µM
HL-60
  GI50: 0.0292 µM (active)
HOP-62
  GI50: 0.0641 µM (active)
HOP-92
  GI50: 0.144 µM (active)
HT-29
  GI50: 0.0597 µM (active)
Hs-578T
  GI50: 0.0618 µM (active)
IGROV-1
  GI50: 0.0344 µM (active)
K562
  GI50: 0.0422 µM (active)
KM12
  GI50: 0.129 µM (active)
LOX IMVI
  GI50: 0.0277 µM (active)
M14
  GI50: 0.204 µM (active)
MCF7
  GI50: 0.0215 µM (active)
MDA-MB-231
  GI50: 0.195 µM (active)
MDA-MB-435
  GI50: 0.0243 µM (active)
MDA-N
  GI50: 0.05 µM (active)
MOLT-4
  GI50: 0.0246 µM (active)
Malme-3M
  GI50: 0.049 µM (active)
NCI-H226
  GI50: 0.219 µM (active)
NCI-H23
  GI50: 0.0935 µM (active)
NCI-H460
  GI50: 0.0537 µM (active)
NCI-H522
  GI50: < 0.01 µM (active)
NCI/ADR-RES
  GI50: 2.76 µM (inactive)
OVCAR-4
  GI50: 0.0344 µM (active)
OVCAR-5
  GI50: 1.48 µM (inactive)
OVCAR-8
  GI50: 0.183 µM (active)
PC-3
  GI50: 0.044 µM (active)
RPMI-8226
  GI50: 0.267 µM (active)
RXF 393
  GI50: < 0.01 µM (active)
SF-268
  GI50: 0.0379 µM (active)
SF-295
  GI50: 0.125 µM (active)
SF-539
  GI50: 0.244 µM (active)
SK-MEL-28
  GI50: 0.165 µM (active)
SK-MEL-2
  GI50: 0.0301 µM (active)
SK-MEL-5
  GI50: 0.0118 µM (active)
SK-OV-3
  GI50: 0.298 µM (active)
SN12C
  GI50: 0.335 µM (active)
SNB-19
  GI50: 0.0497 µM (active)
SNB-75
  GI50: 0.207 µM (active)
SR
  GI50: 0.037 µM (active)
SW-620
  GI50: 0.034 µM (active)
T47D
  GI50: 0.0412 µM (active)
TK-10
  GI50: 0.372 µM (active)
U-251
  GI50: 0.0349 µM (active)
UACC-257
  GI50: 0.113 µM (active)
UACC-62
  GI50: 0.0785 µM (active)
UO-31
  GI50: 0.475 µM (active)

## Clc1cccc(-c2sc(-c3ccsc3)cc2Cc2ccsc2)c1
786-0
  GI50: > 10 µM (inactive)
A549
  GI50: > 10 µM (inactive)
CAKI-1
  GI50: > 10 µM (inactive)
CCRF-CEM
  GI50: > 10 µM (inactive)
COLO 205
  GI50: > 10 µM (inactive)
DU-145
  GI50: > 10 µM (inactive)
EKVX
  GI50: > 10 µM (inactive)
HCC 2998
  GI50: > 10 µM (inactive)
HCT-15
  GI50: > 10 µM
HL-60
  GI50: > 10 µM (inactive)
HOP-62
  GI50: > 10 µM (inactive)
HOP-92
  GI50: > 10 µM (inactive)
HT-29
  GI50: > 10 µM (inactive)
IGROV-1
  GI50: > 10 µM (inactive)
K562
  GI50: > 10 µM (inactive)
KM12
  GI50: > 10 µM (inactive)
LOX IMVI
  GI50: > 10 µM (inactive)
M14
  GI50: > 10 µM (inactive)
MCF7
  GI50: > 10 µM (inactive)
MDA-MB-231
  GI50: > 10 µM (inactive)
MDA-MB-435
  GI50: > 10 µM (inactive)
MDA-N
  GI50: > 10 µM (inactive)
MOLT-4
  GI50: > 10 µM (inactive)
Malme-3M
  GI50: > 10 µM (inactive)
NCI-H23
  GI50: > 10 µM (inactive)
OVCAR-4
  GI50: > 10 µM (inactive)
OVCAR-8
  GI50: > 10 µM (inactive)
PC-3
  GI50: > 10 µM (inactive)
RPMI-8226
  GI50: > 10 µM (inactive)
RXF 393
  GI50: > 10 µM (inactive)
SF-268
  GI50: > 10 µM (inactive)
SF-295
  GI50: > 10 µM (inactive)
SK-MEL-28
  GI50: > 10 µM (inactive)
SK-MEL-5
  GI50: > 10 µM (inactive)
SK-OV-3
  GI50: > 10 µM (inactive)
SN12C
  GI50: > 10 µM (inactive)
SNB-75
  GI50: > 10 µM (inactive)
SR
  GI50: > 10 µM (inactive)
SW-620
  GI50: > 10 µM (inactive)
T47D
  GI50: 8 µM (inactive)
TK-10
  GI50: > 10 µM (inactive)
UACC-257
  GI50: > 10 µM (inactive)
UACC-62
  GI50: > 10 µM (inactive)
